Reference: US20110172163A1, “Novel Protease Inhibitors” (QUEENSLAND UNIVERSITY OF TECHNOLOGY, priority 2008, published 2011)
Peptide text beside a SMILES is read from it. * marks the point of attachment. pNA = O=[N+]([O-])c1ccc(N*)cc1

Tests used:
[1] = comparison value, source not given; cited from earlier work
[2] = biological target: KLK4 (Homo sapiens, UniProt Q9Y5K2); assay: Kinetic studies of para-nitroanilide substrates with KLK4; assay type: biochemical; parameters: pro-region of PSA (KLK3), replacing the native KLK4 pro-region (only if the E. coli preparation was used) (N, cleaved yes); made in house; details: relative to the parent substrate (Bz-FVR-pNA or FVQR-pNA)
Procedure: Human recombinant KLK4 was expressed in E. coli using a previously described chimeric KLK4 plasmid construct where the native pro-region was replaced with the pro-region of PSA, enabling autoactivation. Protein was expressed as inclusion bodies which were isolated and solubilised as described previously to yield 90% pure KLK4. Protein refolding was performed by dilution into 100 volumes of refolding buffer I (2 M urea, 0.1M NaCl, 5 mM GSH, 0.5 mM GSSG, 10 mM benzamidine, 50 mM tris HCl pH 8.0, 2 mM CaCl2) over 44 hours before further dilution into 3 volumes refolding buffer II (refolding buffer I with 0.5 M urea 0.5 mM GSH, 0.05 mM GSSG, 2 mM CaCl2) over another 24 hours. Dialysis was performed as previously described (with additional 2 mM CaCl2 to reduce aggregation) before concentration using UNO sphere Q (Biorad) eluting with tris buffered saline (pH 7.5)/2 mM CaCl2. […]
Kinetic Studies Active site titration was carried out according to Beynon et al., replacing α1-proteinase inhibitor with soybean trypsin inhibitor. Enzymatic activity assays were performed with 4.9 nM KLK4 and substrate concentrations in the range of 0-600 μM in 300 μL of assay buffer with hydrolysis monitored over 5 minutes as described for the substrate screen. […]

KLK4, sequence (Q9Y5K2 31-254): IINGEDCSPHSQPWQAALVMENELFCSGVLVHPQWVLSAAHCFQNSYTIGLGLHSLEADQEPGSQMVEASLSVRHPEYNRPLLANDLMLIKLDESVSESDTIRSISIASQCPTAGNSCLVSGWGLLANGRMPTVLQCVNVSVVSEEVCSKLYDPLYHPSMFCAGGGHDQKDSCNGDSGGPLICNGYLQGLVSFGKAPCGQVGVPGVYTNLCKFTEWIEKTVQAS

| SMILES | half life [1] | reduction of kcat [2] |
| --- | --- | --- |
| CC(C)c1nc(CN(C)C(=O)N[C@H](C(=O)N[C@@H](Cc2ccccc2)C[C@H](O)[C@H](Cc2ccccc2)NC(=O)OCc2cncs2)C(C)C)cs1 [ritonavir] | 3.8 h | – |
| CC(=O)N[C@@H](Cc1ccccc1)C(=O)N[C@H](C(=O)N[C@@H](CCCNC(=N)N)C(=O)Nc1ccc([N+](=O)[O-])cc1)C(C)C [Ac-FVR-pNA] (Ac-Phe-Val-Arg-pNA) | – | 47% |
